This note sets out measurements from PMC10082216 (Nature Communications, 2023).

The test system of one assay is female gametocytes. The experiment in a line: 384-well microsphiltration readout 2 (anti-pfs25): retention of female gametocytes. Format: cell-based. The settings on record: Plasmodium falciparum, read-out: IC50 during the screening campaign, only females stained. The method, then: Large scale microsphiltration was performed as previously described. Briefly, microsphiltration plates were prepared using a Biomek NX workstation (Beckman, cat. no. 989402) to load 15 μl of 25–45μm microspheres then 10 μl of a mixture of 30% 5–15μm and 70% (w/w) 15–25μm microspheres. The 384-well filter plates were then stored at -20 °C until use. In some of the 384-well microsphiltration plates leakage of microspheres occurred in one or more wells. The wells with leakages were sealed. Plates displaying more than 5 sealed wells were not used. Imaging plates were prepared by loading 30 μL of staining solution in each well of a collagen-coated plate. A different staining solution was used for each readout (1 and 2). Readout 1 counted both male and female gametocytes, using nucleic acid (Syto40, Thermo Fisher cat. no. S11351) and viability (MitoTracker Deep Red, Thermo Fisher cat. no. M22426) staining, and total RBCs using a cell membrane stain (CellMask Orange, Thermo Fisher cat. no. C10045). Readout 2 selectively quantified the retention and killing of female gametocytes. […] Imaging plates were incubated overnight at room temperature, then read in an OperaPhenix high-content confocal imaging system (Perkin Elmer, Waltham, MA, USA) and analyzed with Harmony high-content analysis software v. […]

In assay [1] the test system is F32-TEM P. falciparum strain. The experiment in a line: Resistance selection by TD-6450 drug pulses, dose-response on F32-TEM. The settings on record: for Parental strain 1 (viability) / Parental strain 2 (viability) / Parental strain 3 (viability): No drug pulses; for IC50: Plasmodium falciparum. Format: cell-based, Plasmodium falciparum. The method, then: To assess the ability of P. falciparum to develop resistance against TD-6450, we exposed F32-TEM line parasites, a reference artemisinin-sensitive P. falciparum strain[45], to the drug at 3 µM concentration for three days. We confirmed the absence of parasites on Giemsa-stained smears following exposure, then checked daily for parasite re-appearance in a drug-free culture flask.

Molecules are shown by their SMILES. Like-named read-outs stand apart in the source and are kept apart here.

As for `CNC(=O)N1C[C@@H](C)N(c2ccc(C(=O)Nc3ccc(-c4ccc(-c5c[nH]c([C@@H]6CCCN6C(=O)[C@@H](NC(=O)OC)C(C)C)n5)cc4)c(OC(F)(F)F)c3)cn2)C[C@@H]1C` [TD-6450], the IC50 in the assay on female gametocytes is 2030 ± 350 nM; in assay [1] (F32, read-out: IC50, F32-TEM 5 pulses) it was 700 nM; in assay [1] (F32, read-out: IC50, F32-TEM 10 pulses), 300 nM; in assay [1] (F32, read-out: IC50, F32-TEM P.S.), 200 nM. Besides, the “Parental strain 1 (viability)” value in assay [1] (5 µM) came to 1.88; in assay [1] (10 µM) it was 1.472; in assay [1] (20 µM), 1.826. The “Parental strain 2 (viability)” value is given as 1.225 in assay [1] (5 µM), 0.6944 in assay [1] (10 µM) and 0.509 in assay [1] (20 µM). Further, the “Parental strain 3 (viability)” value in assay [1] (5 µM) was 1.766; in assay [1] (10 µM) it was 1.083; in assay [1] (20 µM), 0.9281. Besides, the “fold shift in IC50” value in assay [1] (after five drug-killing pulses (3 µM, three days)) turned out to be 3.5 fold; in assay [1] (after ten drug-killing pulses (3 µM, three days)) it was 1.5 fold.
